Measurements from patent publication US12390441B2, “Immunomodulating o-het/aryl azalides” (Zoetis Services LLC, priority 2020, dated 2025).
Marks after values point to notes of the source that are not given here.

Key:
[1] = test system: BRD pathogens, M. haemolytica and P. multocida; test: In-vitro MIC model, BRD pathogen screening panel; format: cell-based, Mannheimia haemolytica; Pasteurella multocida; conditions: for MIC for at least one BRD strain (asterisk on Ex#): Table F, Formula (1-A1a) compounds
TNF-α = test: Whole blood assay, LPS stimulation, MSD cytokine detection; format: cell-based; conditions: fresh whole bovine blood
IL-1β = test: as above; format: cell-based, bovine; conditions: fresh whole bovine blood, LPS stimulation; drug concentration giving overstimulation (OS) of IL-1β
IL-6 = test: as above; format: cell-based; conditions: fresh whole bovine blood

SMILES | MIC flag at the example number (Table C) ([1]; at least one BRD strain) | IC50 (TNF-α) | IL-1ß OS of LPS (IL-1β) | MIC flag at the example number (Table E) ([1]; at least one BRD strain) | IC50 (IL-6) | MIC for at least one BRD strain (asterisk on Ex#) [1] | MIC flag at the example number (Table G) ([1]; at least one BRD strain)
CC[C@H]1OC(=O)[C@H](C)[C@@H](O)[C@H](C)[C@@H](O[C@@H]2O[C@H](C)C[C@H](N(C)C(=O)N(C)c3ccccc3)[C@H]2Oc2ccc(OC)cc2)[C@](C)(O)C[C@@H](C)CN(C)[C@H](C)[C@@H](O)[C@]1(C)O [Example C-13] | C-13* (MIC ≤ 64 μg/mL for at least one BRD strain) | 44 µM | 40 µM |  |  |  | 
CCCNC[C@]1(O)[C@H](C)O[C@@H](O[C@H]2[C@H](C)[C@@H](O[C@@H]3O[C@H](C)C[C@H](NC)[C@H]3Oc3cccc(F)c3)[C@](C)(O)C[C@@H](C)CN[C@H](C)[C@@H](O)[C@](C)(O)[C@@H](CC)OC(=O)[C@@H]2C)C[C@@]1(C)OC [Example E-7] |  | 15 µM | 40 µM | E-7* (MIC ≤ 64 μg/mL for at least one BRD strain) | 40 µM |  | 
CCCNC[C@]1(O)[C@H](C)O[C@@H](O[C@H]2[C@H](C)[C@@H](O[C@@H]3O[C@H](C)C[C@H](NC)[C@H]3Oc3cc(F)c(OC)c(F)c3)[C@](C)(O)C[C@@H](C)CN[C@H](C)[C@@H](O)[C@](C)(O)[C@@H](CC)OC(=O)[C@@H]2C)C[C@@]1(C)OC [Example E-9] |  | 18 µM | 40 µM | E-9* (MIC ≤ 64 μg/mL for at least one BRD strain) | 30 µM |  | 
CCCNC[C@]1(O)[C@H](C)O[C@@H](O[C@H]2[C@H](C)[C@@H](O[C@@H]3O[C@H](C)C[C@H](NC)[C@H]3Oc3ccc(OC)c(OC(C)C)c3)[C@](C)(O)C[C@@H](C)CN[C@H](C)[C@@H](O)[C@](C)(O)[C@@H](CC)OC(=O)[C@@H]2C)C[C@@]1(C)OC [Example E-20] |  | 25 µM | 100 µM | E-20* (MIC ≤ 64 μg/mL for at least one BRD strain) | 40 µM |  | 
CCCNC[C@]1(O)[C@H](C)O[C@@H](O[C@H]2[C@H](C)[C@@H](O[C@@H]3O[C@H](C)C[C@H](NC)[C@H]3Oc3ccc(F)c(F)c3)[C@](C)(O)C[C@@H](C)CN[C@H](C)[C@@H](O)[C@](C)(O)[C@@H](CC)OC(=O)[C@@H]2C)C[C@@]1(C)OC [Example E-36] |  | 3 µM | 16 µM | E-36* (MIC ≤ 64 μg/mL for at least one BRD strain) | 10 µM |  | 
CCCNC[C@]1(O)[C@H](C)O[C@@H](O[C@H]2[C@H](C)[C@@H](O[C@@H]3O[C@H](C)C[C@H](NC)[C@H]3Oc3ccc4ccncc4c3)[C@](C)(O)C[C@@H](C)CN[C@H](C)[C@@H](O)[C@](C)(O)[C@@H](CC)OC(=O)[C@@H]2C)C[C@@]1(C)OC [Example E-56] |  | 11 µM | 100 µM | E-56* (MIC ≤ 64 μg/mL for at least one BRD strain) | 120 µM |  | 
CCCNC[C@]1(O)[C@H](C)O[C@@H](O[C@H]2[C@H](C)[C@@H](O[C@@H]3O[C@H](C)C[C@H](NC)[C@H]3Oc3ccccc3C)[C@](C)(O)C[C@@H](C)CN[C@H](C)[C@@H](O)[C@](C)(O)[C@@H](CC)OC(=O)[C@@H]2C)C[C@@]1(C)OC [Example E-61] |  | 5 µM | 16 µM | E-61* (MIC ≤ 64 μg/mL for at least one BRD strain) | 19 µM |  | 
CC[C@H]1OC(=O)[C@H](C)[C@@H](O[C@H]2C[C@@](C)(OC)[C@](O)(CNc3ccccc3)[C@H](C)O2)[C@H](C)[C@@H](O[C@@H]2O[C@H](C)C[C@H](N(C)C)[C@H]2Oc2ccccc2)[C@](C)(O)C[C@@H](C)CN[C@H](C)[C@@H](O)[C@]1(C)O [Example E-67] |  | 5 µM | 6 µM | E-67* (MIC ≤ 64 μg/mL for at least one BRD strain) | 8 µM |  | 
CCCNC[C@]1(O)[C@H](C)O[C@@H](O[C@H]2[C@H](C)[C@@H](O[C@@H]3O[C@H](C)C[C@H](N(C)C)[C@H]3Oc3cccc(OC)c3)[C@](C)(O)C[C@@H](C)CN[C@H](C)[C@@H](O)[C@](C)(O)[C@@H](CC)OC(=O)[C@@H]2C)C[C@@]1(C)OC [Example E-73] |  | 5 µM | 16 µM | E-73* (MIC ≤ 64 μg/mL for at least one BRD strain) | 18 µM |  | 
CCCNC[C@]1(O)[C@H](C)O[C@@H](O[C@H]2[C@H](C)[C@@H](O[C@@H]3O[C@H](C)C[C@H](NC)[C@H]3Oc3ccc(OC)nc3OC)[C@](C)(O)C[C@@H](C)CN[C@H](C)[C@@H](O)[C@](C)(O)[C@@H](CC)OC(=O)[C@@H]2C)C[C@@]1(C)OC [Example E-77] |  | 22 µM | 18 µM | E-77* (MIC ≤ 64 μg/mL for at least one BRD strain) | 66 µM |  | 
CC[C@H]1OC(=O)[C@H](C)[C@@H](O[C@H]2C[C@@](C)(OC)[C@](O)(CNc3ccccc3)[C@H](C)O2)[C@H](C)[C@@H](O[C@@H]2O[C@H](C)C[C@H](NC)[C@H]2Oc2ccccc2)[C@](C)(O)C[C@@H](C)CN[C@H](C)[C@@H](O)[C@]1(C)O [Example E-137] |  |  |  | E-137* (MIC ≤ 64 μg/mL for at least one BRD strain) |  |  | 
CC[C@H]1OC(=O)[C@H](C)[C@@H](O[C@H]2C[C@@](C)(OC)[C@](O)(CNC3CC3)[C@H](C)O2)[C@H](C)[C@@H](O[C@@H]2O[C@H](C)C[C@H](N(C)C)[C@H]2Oc2ccccc2)[C@](C)(O)C[C@@H](C)CN[C@H](C)[C@@H](O)[C@]1(C)O [Example E-140] |  |  |  | E-140* (MIC ≤ 64 μg/mL for at least one BRD strain) |  |  | 
CCCNC[C@]1(O)[C@H](C)O[C@@H](O[C@H]2[C@H](C)[C@@H](O[C@@H]3O[C@H](C)C[C@H](N(C)C(=O)N(C)c4ccccc4)[C@H]3Oc3ccccc3Cl)[C@](C)(O)C[C@@H](C)CN[C@H](C)[C@@H](O)[C@](C)(O)[C@@H](CC)OC(=O)[C@@H]2C)C[C@@]1(C)OC [Example F-10] |  |  |  |  |  | F-10* (MIC ≤ 64 μg/mL for at least one BRD strain) | 
CCCNC[C@]1(O)[C@H](C)O[C@@H](O[C@H]2[C@H](C)[C@@H](O[C@@H]3O[C@H](C)C[C@H](N(C)C(=O)N(C)CCC)[C@H]3Oc3ccccc3)[C@](C)(O)C[C@@H](C)CN[C@H](C)[C@@H](O)[C@](C)(O)[C@@H](CC)OC(=O)[C@@H]2C)C[C@@]1(C)OC [Example F-11] |  |  |  |  |  | F-11* (MIC ≤ 64 μg/mL for at least one BRD strain) | 
CCCNC[C@]1(O)[C@H](C)O[C@@H](O[C@H]2[C@H](C)[C@@H](O[C@@H]3O[C@H](C)C[C@H](N(C)C(=O)N(C)c4ccccc4)[C@H]3Oc3cccc(OCC)c3)[C@](C)(O)C[C@@H](C)CN[C@H](C)[C@@H](O)[C@](C)(O)[C@@H](CC)OC(=O)[C@@H]2C)C[C@@]1(C)OC [Example F-20] |  |  |  |  |  | F-20* (MIC ≤ 64 μg/mL for at least one BRD strain) | 
CCCNC[C@]1(O)[C@H](C)O[C@@H](O[C@H]2[C@H](C)[C@@H](O[C@@H]3O[C@H](C)C[C@H](N(C)C(=O)N(C)c4ccccc4)[C@H]3Oc3ccc(C#N)cc3)[C@](C)(O)C[C@@H](C)CN[C@H](C)[C@@H](O)[C@](C)(O)[C@@H](CC)OC(=O)[C@@H]2C)C[C@@]1(C)OC [Example F-21] |  |  |  |  |  | F-21* (MIC ≤ 64 μg/mL for at least one BRD strain) | 
CCCNC[C@]1(O)[C@H](C)O[C@@H](O[C@H]2[C@H](C)[C@@H](O[C@@H]3O[C@H](C)C[C@H](N(C)C(=O)N4CCOc5ccccc54)[C@H]3Oc3ccccc3)[C@](C)(O)C[C@@H](C)CN[C@H](C)[C@@H](O)[C@](C)(O)[C@@H](CC)OC(=O)[C@@H]2C)C[C@@]1(C)OC [Example G-2] |  |  |  |  |  |  | G-2* (MIC ≤ 64 μg/mL for at least one BRD strain)
